From patent US20170305882A1, “BENZYL SUBSTITUTED INDAZOLES AS BUB1 KINASE INHIBITORS” (Bayer Pharma Aktiengesellschaft, priority 2014, published 2017)
Counter-ions that a name gives are not always drawn. Like-named read-outs stand apart in the source and are kept apart here.

Tests used:
[1] = Stability in buffer at various pH values (HPLC detection); format: physicochemical; conditions: for Stability pH4: % Test Compound after 4 h [F(t = 4 h) × 100/F(t = 0 h)]: pH 4, 4 h; for Stability pH4: % Test Compound after 4 h [F(t = 4 h) × 100/F(t = 0 h)] / Stability pH7.4: % Test Compound after 4 h [F(t = 4 h) × 100/F(t = 0 h)]: 37° C., prodrug remaining; for Stability pH7.4: % Test Compound after 4 h [F(t = 4 h) × 100/F(t = 0 h)]: pH 7.4, 4 h; for recovery at 60 min, 0.2 mg/mL / recovery at 120 min, 0.2 mg/mL / recovery at 240 min, 0.2 mg/mL / recovery at 1440 min, 0.2 mg/mL: read-out: Recovery (Assay 6, prodrug stability)
Experimental: Stability in Buffer at Various pH Values (HPLC Detection)
0.3 mg of the test compound was solved in 0.1 ml dimethylsulfoxide and 0.4 ml acetonitrile. For complete dissolution the HPLC vial with the sample solution was sonified for about 20 seconds. Then 1.0 ml of the respective buffer solution was added and the sample was again treated in the ultrasonic bath.
Buffer Solutions Used: • pH 4.0: Fluka buffer, Order No. 33643 (11.76 g citric acid, 2.57 g sodium chloride and 2.72 g sodium hydroxide)
pH 7.4: 90 g of sodium chloride, 13.61 g of potassium dihydrogen phosphate and 83.35 g of 1 M sodium hydroxide solution were made up to 1 L with Millipore water and then diluted 1:10.
10 μl portions of the sample solution were analysed by HPLC at different times (0 h, 1 h, 2 h, 4 h and 24 h) at 37° C. The peak areas in percentage were used for quantification.
Agilent 1100 with DAD (G1315B), binary pump (G1312A), autosampler (G1329A), column oven (G1316A), thermostat (G1330B); column: Kromasil 100 C18, 250 mm×4 mm, 5 μm; column temperature: 37° C.; eluent A: water+5 ml of perchloric acid/litre, eluent B: acetonitrile.
The ratios of the peak area (F) at different times in relation to the peak area at the starting point are shown in Table 3 for representative examples: […]

[2] = target: T1, (recombinant) catalytic domain of human Bub1 (amino acids 704-1085) (Homo sapiens, UniProt O43683); assay: Equilibrium probe competition assay (TR-FRET kinase binding assay); conditions: read-out: IC50 (Assay 5, probe competition)
T1 construct: catalytic domain of human Bub1 (amino acids 704-1085); 6xHis (N); made in house; host or cells: Hi5 insect cells
Description: Equilibrium Probe Competition Assay:
Bub1 binding affinity of compounds described in the present invention were quantified using a time-resolved fluorescence energy transfer (TR-FRET) kinase binding assay which measures displacement of the synthetic fluorescent probe 5-[({2-[2-({2-[1-(4-ethoxy-2,6-difluorobenzyl)-1H-indazol-3-yl]-4-(pyridin-4-ylamino)pyrimidin-5-yl}oxy)ethoxy]ethyl}carbamothioyl)amino]-2-(6-hydroxy-3-oxo-3H-xanthen-9-yl)benzoic acid (5-5-1) by the (recombinant) catalytic domain of human Bub1 (amino acids 704-1085). The enzyme was expressed in Hi5 insect cells with N-terminal 6×His/AviTag@ seqences, purified by affinity-(Ni-NTA) and size exclusion chromatography and site-specific biotinylated ex-vivo using a commercially available kit (Avidity).
In a typical assay 11 different concentrations of each compound (0.1 nM, 0.33 nM, 1.1 nM, 3.8 nM, 13 nM, 44 nM, ˜0.15 μM, ˜0.51 μM, ˜1.7 μM, 5.9 μM and 20 μM) were tested in duplicate within the same microtiter plate. To this end, 100-fold concentrated compound solutions (in DMSO) were made by serial dilution (1:3.4) of freshly prepared 2 mM stocks in a clear low volume 384-well source microtiter plate (Greiner Bio-One, Frickenhausen, Germany), from which 50 nl of compounds were transferred into a black low volume test microtiter plate from the same supplier. Subsequently 2 μL of a solution containing biotinylated Bub1 (the final concentration of Bub1 was adjusted depending on the activity of the enzyme lot in order to be within the linear dynamic range of the assay: typically ˜200 pM were used) and 1 nM Streptavidin Terbium Cryptate (Cisbio, No. 610SATLB) in aqueous assay buffer [50 mM Tris/HCl pH 7.5, 200 mM potassium chloride (KCl), 1.0 mM dithiothreitol (DTT), 0.1 mM sodium ortho-vanadate, 1% (v/v) glycerol, 0.01% (w/v) bovine serum albumine (BSA), 0.005% (v/v) Triton X-100 (Sigma), were added to the compounds in the test plate and the mixture was incubated for 15 min at 22′C to allow pre-equilibration of the putative enzyme-inhibitor complexes before the start of the probe competition reaction, which was initiated by the addition of 3 μL 1.67-fold concentrated solution (in assay buffer) of 5-5-1 (final concentration: 1.5 nM). The resulting mixture (5 μL final volume) was Incubated at 220 during 0, 15, 30, 60, 120, 240 and 1440 min. After each time point the resonance energy transfer from the Streptavidin Tb cryptate to the 3′,6′-dihydroxy-3H-spiro[2-benzofuran-1,9′-xanthen]-3-one moiety of 5-5-1 was measured in order to quantify the amount of fluorescent probe displaced by the test compounds. To this end, the fluorescence emissions at 520 nm and 490 nm after excitation at 330-350 nm were measured in a Pherastar FS TR-FRET plate reader, (BMG Lab technologies, Offenburg, Germany) and the ratio of the emissions (520 nm/490 nm) was taken as Indicator for the amount of Bub1/5-5-1 equilibrium complexes. The data were normalized using two sets of control wells for high-(=enzyme reaction without inhibitor=0%=Minimum inhibition) and low-(=all assay components without enzyme=100%=Maximum inhibition) Bub1 activity. IC50 values were calculated by fitting the normalized inhibition data to a 4-parameter logistic equation (Minimum, Maximum, IC50, Hill; Y=Max+(Min−Max)/(1+(X/IC50)Hill)).

CCOc1cc(F)c(Cn2nc(-c3ncc(OCCCOC(=O)[C@H](C)NC(=O)[C@@H](N)CCCNC(=N)N)c(Nc4ccncc4Cl)n3)c3ccccc32)c(F)c1 [Example 4-1-8, 3-({4-[(3-chloropyridin-4-yl)amino]-2-[1-(4-ethoxy-2,6-difluorobenzyl)-1H-indazol-3-yl]pyrimidin-5-yl}oxy)propyl L-arginyl-L-alaninate]
Stability pH4: % Test Compound after 4 h [F(t = 4 h) × 100/F(t = 0 h)] [1]: 100%
Stability pH7.4: % Test Compound after 4 h [F(t = 4 h) × 100/F(t = 0 h)] [1]: 56%

CCOc1cc(F)c(Cn2nc(-c3ncc(OCCCOC(=O)[C@H](C)NC(=O)[C@H](N)CCCCN)c(Nc4ccnc(NC(C)=O)c4)n3)c3ccccc32)c(F)c1 [Example 4-1-3, 3-[(4-{[2-(acetylamino)pyridin-4-yl]amino}-2-[1-(4-ethoxy-2,6-difluorobenzyl)-1H-indazol-3-yl]pyrimidin-5-yl)oxy]propyl D-lysyl-L-alaninate, salt with trifiuoroaceticacid]
recovery at 60 min, 0.2 mg/mL [1]: 75%
recovery at 120 min, 0.2 mg/mL [1]: 56%
recovery at 240 min, 0.2 mg/mL [1]: 31%
recovery at 1440 min, 0.2 mg/mL [1]: 0%
Stability pH4: % Test Compound after 4 h [F(t = 4 h) × 100/F(t = 0 h)] [1]: 100%
Stability pH7.4: % Test Compound after 4 h [F(t = 4 h) × 100/F(t = 0 h)] [1]: 31%
IC50 ([2]; Time 15 min): 1100 pM
IC50 ([2]; Time 30 min): 650 pM
IC50 ([2]; Time 60 min): 420 pM
IC50 ([2]; Time 90 min): 270 pM
IC50 ([2]; Time 120 min): 250 pM
IC50 ([2]; Time 240 min): 200 pM
IC50 ([2]; Time 1440 min): 170 pM

CCOc1cc(F)c(Cn2nc(-c3ncc(OCCCOC(=O)[C@H](C)NC(=O)[C@@H](N)CCCCN)c(Nc4ccncc4Cl)n3)c3ccccc32)c(F)c1 [Example 4-1-5, 3-({4-[(3-chloropyridin-4-yl)amino]-2-[1-(4-ethoxy-2,6-difluorobenzyl)-1H-indazol-3-yl]pyrimidin-5-yl}oxy)propyl L-lysyl-L-alaninate, salt with trifluoroaceticacid]
recovery at 60 min, 0.2 mg/mL [1]: 81%
recovery at 120 min, 0.2 mg/mL [1]: 65%
recovery at 240 min, 0.2 mg/mL [1]: 42%
recovery at 1440 min, 0.2 mg/mL [1]: 0%
Stability pH4: % Test Compound after 4 h [F(t = 4 h) × 100/F(t = 0 h)] [1]: 101%
Stability pH7.4: % Test Compound after 4 h [F(t = 4 h) × 100/F(t = 0 h)] [1]: 42%
IC50 ([2]; Time 15 min): 1500 pM
IC50 ([2]; Time 30 min): 820 pM
IC50 ([2]; Time 60 min): 600 pM
IC50 ([2]; Time 90 min): 510 pM
IC50 ([2]; Time 120 min): 460 pM
IC50 ([2]; Time 240 min): 270 pM
IC50 ([2]; Time 1440 min): 250 pM

CCOc1cc(F)c(Cn2nc(-c3ncc(OCCCOC(=O)[C@@H](NC(=O)[C@@H](N)CCCCN)C(C)C)c(Nc4ccncc4Cl)n3)c3ccccc32)c(F)c1 [Example 4-1-9, 3-({4-[(3-chloropyridin-4-yl)amino]-2-[1-(4-ethoxy-2,6-difluorobenzyl)-1H-indazol-3-yl]pyrimidin-5-yl}oxy)propyl L-lysyl-L-valinate]
Stability pH4: % Test Compound after 4 h [F(t = 4 h) × 100/F(t = 0 h)] [1]: 99%
Stability pH7.4: % Test Compound after 4 h [F(t = 4 h) × 100/F(t = 0 h)] [1]: 99%

CCOc1cc(F)c(Cn2nc(-c3ncc(OCCCOC(=O)[C@H](C)NC(=O)[C@@H](N)CCCCN)c(Nc4ccnc(NC(C)=O)c4)n3)c3ccccc32)c(F)c1 [Example 4-1-2, 3-[(4-{[2-(acetylamino)pyridin-4-yl]amino}-2-[1-(4-ethoxy-2,6-difluorobenzyl)-1H-indazol-3-yl]pyrimidin-5-yl)oxy]propyl L-lysyl-L-alaninate, salt with trifiuoroaceticacid]
Stability pH4: % Test Compound after 4 h [F(t = 4 h) × 100/F(t = 0 h)] [1]: 100%
Stability pH7.4: % Test Compound after 4 h [F(t = 4 h) × 100/F(t = 0 h)] [1]: 30%

CCOc1cc(F)c(Cn2nc(-c3ncc(OCCCOC(=O)[C@H](C)NC(=O)[C@@H](N)CCCCN)c(Nc4cc(C)ncc4C)n3)c3ccccc32)c(F)c1 [Example 4-1-7, 3-({4-[(2,5-dimethylpyridin-4-yl)amino]-2-[1-(4-ethoxy-2,6-difluorobenzyl)-1H-indazol-3-yl]pyrimidin-5-yl}oxy)propyl L-lysyl-L-alaninate, salt with trifluoroaceticacid]
Stability pH4: % Test Compound after 4 h [F(t = 4 h) × 100/F(t = 0 h)] [1]: 99%
Stability pH7.4: % Test Compound after 4 h [F(t = 4 h) × 100/F(t = 0 h)] [1]: 43%

CCOc1cc(F)c(Cn2nc(-c3ncc(OCCCOC(=O)[C@H](C)NC(=O)[C@@H](N)CCCNC(=N)N)c(Nc4ccnc(NC(C)=O)c4)n3)c3ccccc32)c(F)c1 [Example 4-1-4, 3-[(4-{[2-(acetylamino)pyridin-4-yl]amino}-2-[1-(4-ethoxy-2,6-difluorobenzyl)-1H-indazol-3-yl]pyrimidin-5-yl)oxy]propyl L-arginyl-L-alaninate, salt with trifiuoroaceticacid]
recovery at 60 min, 0.2 mg/mL [1]: 86%
recovery at 120 min, 0.2 mg/mL [1]: 73%
recovery at 240 min, 0.2 mg/mL [1]: 53%
recovery at 1440 min, 0.2 mg/mL [1]: 3%
Stability pH4: % Test Compound after 4 h [F(t = 4 h) × 100/F(t = 0 h)] [1]: 100%
Stability pH7.4: % Test Compound after 4 h [F(t = 4 h) × 100/F(t = 0 h)] [1]: 53%
IC50 ([2]; Time 15 min): 2800 pM
IC50 ([2]; Time 30 min): 580 pM
IC50 ([2]; Time 60 min): 610 pM
IC50 ([2]; Time 90 min): 550 pM
IC50 ([2]; Time 120 min): 540 pM
IC50 ([2]; Time 240 min): 320 pM
IC50 ([2]; Time 1440 min): 330 pM

CCOc1cc(F)c(Cn2nc(-c3ncc(OCCCOC(=O)[C@H](C)NC(=O)[C@@H](N)CCCCN)c(Nc4ccnc(C(F)F)c4)n3)c3ccccc32)c(F)c1 [Example 4-1-1, 3-[(4-{[2-(difluoromethyl)pyridin-4-yl]amino}-2-[1-(4-ethoxy-2,6-difluorobenzyl)-1H-Indazol-3-yl]pyrimidin-5-yl)oxy]propyl L-lysyl-L-alaninate, salt with trifluoroaceticacid]
recovery at 60 min, 0.2 mg/mL [1]: 76%
recovery at 120 min, 0.2 mg/mL [1]: 57%
recovery at 240 min, 0.2 mg/mL [1]: 32%
recovery at 1440 min, 0.2 mg/mL [1]: 0%
Stability pH4: % Test Compound after 4 h [F(t = 4 h) × 100/F(t = 0 h)] [1]: 100%
Stability pH7.4: % Test Compound after 4 h [F(t = 4 h) × 100/F(t = 0 h)] [1]: 32%
IC50 ([2]; Time 15 min): 1400 pM
IC50 ([2]; Time 30 min): 1500 pM
IC50 ([2]; Time 60 min): 1400 pM
IC50 ([2]; Time 90 min): 1500 pM
IC50 ([2]; Time 120 min): 1300 pM
IC50 ([2]; Time 240 min): 1500 pM
IC50 ([2]; Time 1440 min): 2000 pM

CCOc1cc(F)c(Cn2nc(-c3ncc(OCCCOC(=O)[C@H](C)NC(=O)[C@H](N)CCCCN)c(Nc4cc(C)ncc4C)n3)c3ccccc32)c(F)c1 [Example 4-1-6, 3-({4-[(2,5-dimethylpyridin-4-yl)amino]-2-[1-(4-ethoxy-2,6-difluorobenzyl)-1H-indazol-3-yl]pyrimidin-5-yl}oxy)propyl D-lysyl-L-alaninate, salt with trifluoroaceticacid]
Stability pH4: % Test Compound after 4 h [F(t = 4 h) × 100/F(t = 0 h)] [1]: 101%
Stability pH7.4: % Test Compound after 4 h [F(t = 4 h) × 100/F(t = 0 h)] [1]: 53%
